In publication PMC5909127, “Optimization of a “bump-and-hole” approach to allele-selective BET bromodomain inhibition” (Chemical Science, 2018):

Columns and labels:
[1] = target: WT BET bromodomains (BD1 and BD2 of BRD2, BRD3 and BRD4); assay: competitive AlphaLISA (Bio-JQ1 displacement); assay type: binding, human; conditions: mean and SD of all somatic bromodomains; active enantiomer concentration
[2] = test system: L/V BET bromodomains (BD1 and BD2 of BRD2, BRD3 and BRD4); assay: competitive AlphaLISA (Bio-JQ1 displacement); assay type: binding, human; conditions: L/V minus WT
BRD2 BD1 L/V [3] = target: T1, BRD2 BD1 L/V (Homo sapiens, UniProt P25440, L110V); assay: competitive AlphaLISA; assay type: binding
T1 sequence (P25440 71-176 L110V limits assumed): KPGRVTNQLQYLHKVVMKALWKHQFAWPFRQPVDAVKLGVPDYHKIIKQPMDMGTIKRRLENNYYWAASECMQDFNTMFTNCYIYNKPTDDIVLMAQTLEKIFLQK

BRD2 BD2 WT [4] = target: T2, BRD2 BD2 WT (Homo sapiens, UniProt P25440); assay: competitive AlphaLISA; assay type: binding
T2 sequence (P25440 344-455): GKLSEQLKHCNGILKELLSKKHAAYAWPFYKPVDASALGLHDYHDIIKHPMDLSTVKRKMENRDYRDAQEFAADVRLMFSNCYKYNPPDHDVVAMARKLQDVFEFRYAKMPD

BRD2 BD2 L/V [5] = target: T3, BRD2 BD2 L/V (Homo sapiens, UniProt P25440, L383V); assay: competitive AlphaLISA; assay type: binding
T3 sequence (P25440 344-455 L383V): as the sequence (P25440 344-455) above, with L40V counted along it

BRD3 BD1 WT [6] = target: T4, BRD3 BD1 WT (Homo sapiens, UniProt Q15059); assay: competitive AlphaLISA; assay type: binding
T4 sequence (Q15059 24-144): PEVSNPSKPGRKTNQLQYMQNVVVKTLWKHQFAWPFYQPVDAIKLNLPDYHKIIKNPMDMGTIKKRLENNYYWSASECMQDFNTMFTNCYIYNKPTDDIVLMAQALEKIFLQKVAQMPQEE

BRD3 BD1 L/V [7] = target: T5, BRD3 BD1 L/V (Homo sapiens, UniProt Q15059, L70V); assay: competitive AlphaLISA; assay type: binding
T5 sequence (Q15059 24-144 L70V limits assumed): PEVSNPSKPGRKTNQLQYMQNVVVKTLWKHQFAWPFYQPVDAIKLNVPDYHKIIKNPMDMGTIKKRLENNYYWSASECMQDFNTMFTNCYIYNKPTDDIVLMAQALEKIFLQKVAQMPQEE

BRD3 BD2 WT [8] = target: T6, BRD3 BD2 WT (Homo sapiens, UniProt Q15059); assay: competitive AlphaLISA; assay type: binding
T6 sequence (Q15059 306-416): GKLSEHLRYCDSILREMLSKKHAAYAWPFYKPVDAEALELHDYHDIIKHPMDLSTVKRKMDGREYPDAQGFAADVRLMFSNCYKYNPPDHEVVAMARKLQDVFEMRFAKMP

BRD3 BD2 L/V [9] = target: T7, BRD3 BD2 L/V (Homo sapiens, UniProt Q15059, L345V); assay: competitive AlphaLISA; assay type: binding
T7 sequence (Q15059 306-416 L345V limits assumed): as the sequence (Q15059 306-416) above, with L40V counted along it

BRD4 BD1 WT [10] = target: T8, BRD4 BD1 WT (Homo sapiens, UniProt O60885); assay: competitive AlphaLISA; assay type: binding; conditions: AlphaLISA pIC50 Value BRD4 BD1 WT
BRD4 BD1 L/V [11] = target: T9, BRD4 BD1 L/V (Homo sapiens, UniProt O60885, L94V); assay: competitive AlphaLISA; assay type: binding; conditions: AlphaLISA pIC50 Value BRD4 BD1 L/V
BRD4 BD2 L/V [12] = target: T10, BRD4 BD2 L/V (Homo sapiens, UniProt O60885, L387V); assay: competitive AlphaLISA; assay type: binding
BRDT BD1 WT = BRDT BD1 WT (Homo sapiens, UniProt Q58F21); assay: competitive AlphaLISA; assay type: binding
BRDT BD1 L/V = BRDT BD1 L/V (Homo sapiens, UniProt Q58F21, L63V); assay: competitive AlphaLISA; assay type: binding
BRDT BD2 WT = BRDT BD2 WT (Homo sapiens, UniProt Q58F21); assay: competitive AlphaLISA; assay type: binding
BRD2 BD1 WT = BRD2 BD1 WT (Homo sapiens, UniProt P25440); assay: ITC; assay type: binding; conditions: ITC
Chain of BRD2 BD1 WT (P25440 71-176): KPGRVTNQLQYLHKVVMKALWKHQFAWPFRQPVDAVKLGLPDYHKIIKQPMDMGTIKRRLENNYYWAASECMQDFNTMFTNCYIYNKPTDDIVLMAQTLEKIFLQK

BRD2 BD1 L/V [13] = target: T1, BRD2 BD1 L/V; assay: ITC; assay type: binding
BRD2 BD2 WT [14] = target: T2, BRD2 BD2 WT; assay: ITC; assay type: binding
BRD2 BD2 L/V [15] = target: T3, BRD2 BD2 L/V; assay: ITC; assay type: binding
BRD3 BD1 WT [16] = target: T4, BRD3 BD1 WT; assay: ITC; assay type: binding
BRD3 BD1 L/V [17] = target: T5, BRD3 BD1 L/V; assay: ITC; assay type: binding
BRD3 BD2 WT [18] = target: T6, BRD3 BD2 WT; assay: ITC; assay type: binding
BRD3 BD2 L/V [19] = target: T7, BRD3 BD2 L/V; assay: ITC; assay type: binding
BRD4 BD1 WT [20] = target: T8, BRD4 BD1 WT; assay: ITC; assay type: binding
BRD4 BD1 L/V [21] = target: T9, BRD4 BD1 L/V; assay: ITC; assay type: binding; conditions: ITC
BRD4 BD2 WT = BRD4 BD2 WT (Homo sapiens, UniProt O60885); assay: ITC; assay type: binding
BRD4 BD2 L/V [22] = target: T10, BRD4 BD2 L/V; assay: ITC; assay type: binding
[23] = target: WT somatic BET bromodomains; assay: ITC; conditions: mean and SD of all somatic bromodomains
[24] = test system: L/V somatic BET bromodomains; assay: ITC; conditions: L/V minus WT
in vitro = conditions: PAMPA, pH 7.4
Plasma Half-life = conditions: BALB/c, mouse, pH 7.4
Intrinsic Clearance = conditions: mouse liver microsomes
BRD2: WT/WT = BRD2: WT/WT (Homo sapiens, UniProt P25440); assay: ITC, BRD2 tandem construct
Chain of BRD2: WT/WT (P25440 73-455): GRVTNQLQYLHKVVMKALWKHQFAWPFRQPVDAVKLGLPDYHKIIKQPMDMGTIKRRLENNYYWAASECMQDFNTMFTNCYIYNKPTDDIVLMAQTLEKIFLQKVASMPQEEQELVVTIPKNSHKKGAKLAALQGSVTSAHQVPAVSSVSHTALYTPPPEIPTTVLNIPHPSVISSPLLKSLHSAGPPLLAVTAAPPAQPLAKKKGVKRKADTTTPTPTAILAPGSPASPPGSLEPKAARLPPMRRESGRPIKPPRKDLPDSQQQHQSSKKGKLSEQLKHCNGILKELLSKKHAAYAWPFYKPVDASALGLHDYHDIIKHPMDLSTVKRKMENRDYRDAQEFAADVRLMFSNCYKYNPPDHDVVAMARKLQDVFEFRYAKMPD
BRD2: LV/WT = BRD2: LV/WT (Homo sapiens, UniProt P25440, L110V); assay: ITC, BRD2 tandem construct
Chain of BRD2: LV/WT (P25440 73-455 L110V limits assumed): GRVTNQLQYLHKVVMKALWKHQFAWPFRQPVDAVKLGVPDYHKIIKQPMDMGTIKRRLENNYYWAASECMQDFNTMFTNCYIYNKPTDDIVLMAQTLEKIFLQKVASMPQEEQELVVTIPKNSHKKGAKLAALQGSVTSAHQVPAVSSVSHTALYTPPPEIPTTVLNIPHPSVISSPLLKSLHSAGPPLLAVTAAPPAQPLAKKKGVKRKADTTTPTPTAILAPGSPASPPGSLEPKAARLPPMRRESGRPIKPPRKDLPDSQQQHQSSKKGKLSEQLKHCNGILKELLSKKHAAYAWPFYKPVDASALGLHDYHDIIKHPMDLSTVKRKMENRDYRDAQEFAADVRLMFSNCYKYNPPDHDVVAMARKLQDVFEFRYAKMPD
BRD2: WT/LV = BRD2: WT/LV (Homo sapiens, UniProt P25440, L383V); assay: ITC, BRD2 tandem construct
Chain of BRD2: WT/LV (P25440 73-455 L383V): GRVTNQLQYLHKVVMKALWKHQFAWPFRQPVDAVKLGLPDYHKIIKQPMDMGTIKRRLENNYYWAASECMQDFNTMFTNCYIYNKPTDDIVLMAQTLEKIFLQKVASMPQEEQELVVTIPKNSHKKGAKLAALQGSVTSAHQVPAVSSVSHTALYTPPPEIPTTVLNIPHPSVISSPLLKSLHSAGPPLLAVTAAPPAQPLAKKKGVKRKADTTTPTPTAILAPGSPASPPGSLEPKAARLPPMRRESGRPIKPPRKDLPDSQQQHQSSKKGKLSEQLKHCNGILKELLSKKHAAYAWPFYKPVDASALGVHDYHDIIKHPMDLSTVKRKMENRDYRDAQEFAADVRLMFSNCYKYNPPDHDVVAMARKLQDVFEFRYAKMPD
BRD2: LV/LV = BRD2: LV/LV (Homo sapiens, UniProt P25440, L110V/L383V); assay: ITC, BRD2 tandem construct
Chain of BRD2: LV/LV (P25440 73-455 L110V/L383V limits assumed): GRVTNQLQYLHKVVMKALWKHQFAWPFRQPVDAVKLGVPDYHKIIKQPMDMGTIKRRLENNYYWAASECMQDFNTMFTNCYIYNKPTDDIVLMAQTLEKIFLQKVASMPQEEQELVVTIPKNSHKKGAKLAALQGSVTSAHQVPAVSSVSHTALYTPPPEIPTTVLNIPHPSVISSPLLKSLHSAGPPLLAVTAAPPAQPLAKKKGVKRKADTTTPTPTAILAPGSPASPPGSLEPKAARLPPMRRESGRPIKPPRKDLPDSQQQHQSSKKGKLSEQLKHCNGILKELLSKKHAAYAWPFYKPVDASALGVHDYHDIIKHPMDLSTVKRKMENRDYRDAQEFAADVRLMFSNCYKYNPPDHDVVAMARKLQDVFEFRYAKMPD

CC[C@@H](C(=O)OC)[C@@H]1N=C(c2ccc(Cl)cc2)c2cc(OC)ccc2-n2c(C)nnc21 (relative stereo) [Compound 4]
AlphaLISA pIC50 ± SD WT [1]: 5.0 ± 0.1 | AlphaLISA pIC50 ± SD Δ [2]: 1.7 ± 0.2 | IC50 (BRD2 BD1 L/V [3]): 0.316 µM | IC50 (BRD2 BD2 WT [4]): 10 µM | IC50 (BRD2 BD2 L/V [5]): 0.158 µM | IC50 (BRD3 BD1 WT [6]): 6.31 µM | IC50 (BRD3 BD1 L/V [7]): 0.1 µM | IC50 (BRD3 BD2 WT [8]): 10 µM | IC50 (BRD3 BD2 L/V [9]): 0.1 µM | IC50 (BRD4 BD1 WT [10]): 7.94 µM | IC50 (BRD4 BD1 L/V [11]): 0.251 µM | IC50 (BRD4 BD2 L/V [12]): 0.251 µM | IC50 (BRDT BD1 WT): 15.8 µM | IC50 (BRDT BD1 L/V): 0.501 µM | IC50 (BRDT BD2 WT): 15.8 µM | ΔH BRD2 BD1 WT (BRD2 BD1 WT): -22.2 kJ/mol | Kd (BRD2 BD1 L/V [13]): 0.24 µM | ΔH BRD2 BD1 L/V (BRD2 BD1 L/V [13]; ITC): -52.7 kJ/mol | Kd (BRD2 BD2 WT [14]): 3.3 µM | ΔH BRD2 BD2 WT (BRD2 BD2 WT [14]; ITC): -5.02 kJ/mol | N BRD2 BD2 WT (BRD2 BD2 WT [14]; ITC stoichiometry): 0.91 | Kd (BRD2 BD2 L/V [15]): 0.05 µM | ΔH BRD2 BD2 L/V (BRD2 BD2 L/V [15]; ITC): -35.6 kJ/mol | Kd (BRD3 BD1 WT [16]): 3.3 µM | ΔH BRD3 BD1 WT (BRD3 BD1 WT [16]; ITC): -20.5 kJ/mol | N BRD3 BD1 WT (BRD3 BD1 WT [16]; ITC stoichiometry): 0.81 | Kd (BRD3 BD1 L/V [17]): 0.08 µM | ΔH BRD3 BD1 L/V (BRD3 BD1 L/V [17]; ITC): -59 kJ/mol | ΔH BRD3 BD2 WT (BRD3 BD2 WT [18]; ITC): -15.9 kJ/mol | N BRD3 BD2 WT (BRD3 BD2 WT [18]; ITC stoichiometry): 0.85 | Kd (BRD3 BD2 L/V [19]): 0.1 µM | ΔH BRD3 BD2 L/V (BRD3 BD2 L/V [19]; ITC): -39.7 kJ/mol | Kd (BRD4 BD1 WT [20]): 2.5 µM | ΔH BRD4 BD1 WT (BRD4 BD1 WT [20]; ITC): -10.9 kJ/mol | N BRD4 BD1 WT (BRD4 BD1 WT [20]; ITC stoichiometry): 0.99 | ΔH BRD4 BD1 L/V (BRD4 BD1 L/V [21]): -43.1 kJ/mol | Kd (BRD4 BD1 L/V [21]; Kd BRD4 BD1 L/V, 30°C): 0.16 µM | Kd (BRD4 BD2 WT): 35 µM | ΔH BRD4 BD2 WT (BRD4 BD2 WT; ITC): -14.2 kJ/mol | Kd (BRD4 BD2 L/V [22]): 0.33 µM | ΔH BRD4 BD2 L/V (BRD4 BD2 L/V [22]; ITC): -33.1 kJ/mol | ITC pKd ± SD WT [23]: 5.1 ± 0.5 | ITC pKd ± SD Δ [24]: 1.8 ± 0.4 | Papp (in vitro): 153 nm/s | half-life at 50 µM (Plasma Half-life): > 3 h | CL int (Intrinsic Clearance): 1.5 ml min^–1 g^–1 | Kd (BRD2: WT/WT): 3.8 ± 1.1 µM | Kd (BRD2: LV/WT): 0.57 ± 0.05 µM | Kd (BRD2: WT/LV): 0.62 ± 0.11 µM | Kd (BRD2: LV/LV): 0.14 ± 0.01 µM
